Measurements: US5807837A, “Composition and method for the treatment or prophylaxis of viral infections using modified oligodeoxyribonucleotides” (Sankyo Company, Limited, priority 1993, dated 1998)

The substances below were run on non-HIV-1 infected MT-4 cells (assay: Cytotoxicity: inhibition of multiplication of non-HIV-1 infected MT-4 cells (MTT method)). Conditions: 6 days culture, 50% inhibition of multiplication.
Format: cell-based
Protocol: HIV-1 infected MT-4 cells and non-HIV-1 infected MT-4 cells were suspended in serum culture media so that a concentration of […] cells/ml of each was attained. One hundred μl of a solution of stepwise diluted sample compound (dissolved in serum culture media), prepared in advance, was placed in each well of […] microtiter plates. Then, 100 μl of each of the above-mentioned cell suspensions was added to each well of microtiter plates, and their cells were cultured for 6 days in the presence of 5% carbon dioxide gas.
As a control, HIV-1 infected MT-4 cells and non-HIV-1 infected MT-4 cells in which no sample compound was added were cultured in the same manner.
After the cultivation, live cell number was measured based on the MTT(3-(4,5-dimethylthiazole-2-yl)-2,5-diphenyltetrazolium bromide) method (L. M. Green et al., J. Immunol, Methods, 70, 257-268(1984)). Then the cytopathic activity of HIV-1 was measured. With the cytopathic activity of HIV-1 infected MT-4 cells to which no sample compound was added as 100%, and the cytopathic activity of […] MT-4 cells to which no sample compound was added as 0%, the concentration of the specimen which inhibited the cytopathic activity of HIV-1 infected MT-4 cells by 50(IC50) was calculated. The cytotoxicity of the sample compound was determined as that concentration which inhibited the multiplication of non-HIV-1 infected MT-4 cells by 50% (CC50).

| Substance | CC50 |
| --- | --- |
| DMT--O--AATGGGAGG--OH [Example 81] | > 100.0 µg/mL |
| DMT--O--CCG--OH [Example 74] | > 100.0 µg/mL |
| DMT--O--CGCGG--OH [Example 48] | > 100.0 µg/mL |
| DMT--O--CGGGAGG--OH [Example 29] | > 100.0 µg/mL |
| DMT--O--CGGGG--OH [Example 45] | > 100.0 µg/mL |
| DMT--O--CGGGT--OH [Example 43] | 100.0 µg/mL |
| DMT--O--CTGGGAGG--OH [Example 37] | > 100.0 µg/mL |
| DMT--O--GGGCGGGGC--OH [Example 70] | 60.0 µg/mL |
| DMT--O--GGGGAGG--OH [Example 33] | > 100.0 µg/mL |
| DMT--O--GTGGGAGG--OH [Example 77] | > 100.0 µg/mL |
| DMT--O--TAGGAGG--OH [Example 71] | 37.0 µg/mL |
| DMT--O--TCGGAGG--OH [Example 75] | 40.0 µg/mL |
| DMT--O--TGCGAGG--OH [Example 32] | > 100.0 µg/mL |
| DMT--O--TGG--OH [Example 78] | > 50.0 µg/mL |
| DMT--O--TGGG--OH [Example 26] | 80.0 µg/mL |
| DMT--O--TGGGA--OH [Example 27] | 95.0 µg/mL |
| DMT--O--TGGGAGA--OH [Example 80] | > 100.0 µg/mL |
| DMT--O--TGGGAGG--OH [Example 30] | > 100.0 µg/mL |
| DMT--O--TGGGAGGT--OH [Example 72] | > 100.0 µg/mL |
| DMT--O--TGGGAmGG [Example 79] | > 100.0 µg/mL |
| DMT--O--TGGGC--OH [Example 58] | 50.0 µg/mL |
| DMT--O--TGGGCGCAG--OH [Example 73] | > 100.0 µg/mL |
| DMT--O--TGGGG--OH [Example 28] | > 100.0 µg/mL |
| DMT--O--TGGGT--OH [Example 57] | 100.0 µg/mL |
| DMT--O--TGmCGAGG--OH [Example 76] | > 100.0 µg/mL |
| DMT--O--TTGGAGG--OH [Example 31] | 90.0 µg/mL |
| DMT--O--TTGGGAGG--OH [Example 36] | 100.0 µg/mL |
| DMT--O--mCGGGAGG--OH [Example 34] | > 100.0 µg/mL |
| DMT--O--mCGmCGAGG--OH [Example 35] | > 100.0 µg/mL |
| DMT-O-TGGGAG-OH [Example 25] | > 100.0 µg/mL |
